Results taken from patent US20020028851A1, “Guanylhydrazones and their use to treat inflammatory conditions” (priority 1994, published 2002).
Where two headings read alike, the source gives them in different places.

Experiments:
RAW 264.7 cells [1] = experiment: Whole cell inhibition assay for arginine uptake; type: cell-based, murine; conditions: for arginine transport % suppression of induced peak: γIFN+LPS, 8 hours
Description: In the embodiment described in the working example herein, a test population of cells was cultured for about 3 hours so that the cells became firmly adherent. Various concentrations of the potential inhibitors were then added to parallel cultures. One hour later the macrophage stimulators, e.g. including, but not limited to LPS and γIFN, were added. Eighteen hours later the cells were washed in a warm balanced salt solution supplemented with glucose. Carrier-free radiolabelled arginine was added; after 5 minutes, active uptake of arginine was stopped by washing the cell three times with buffer, chilled to 0° C., containing 10 mM unlabeled arginine to displace any externally bound label. The contents of the washed cells are solubilized in 100 μl of formic acid and counted by standard techniques.
RAW 264.7 cells are plated in standard 96-well microculture plates at a concentration of 10^5/well and allowed to adhere for from 2 hours to overnight. The medium is then replaced with medium containing the compound to be tested. One hour later, the medium is supplemented so as to contain 25 U/ml γIFN and 0.1 μg/ml LPS and the cultures incubated a further. The cells are then rinsed twice in HEPES- buffered Krebs salt solution with 0.1% glucose. Carrier-free tetra-^3H-arginine is added to each well (2.5 μCi/well with specific activity of […]) and the active uptake of arginine is allowed to continue for a 5 minute period after which the cells are rapidly cooled to 0° C. by lavage with iced saline containing 10 mM unlabeled arginine to displace any externally bound label. The contents of the washed cells are solubilized in 100 Al of formic acid and counted by standard techniques. In subsequent experiments to determine the acitivity of the inhibitors, incubations were performed for 8 hours.
This section describes experiments that measure the concentration of Compound No. 14 needed to inhibit arginine uptake and NO output. The techniques employed were described in section 7.1 supra.

MIP-1α = experiment: Cytokine production by LPS/γIFN-stimulated human PBMC: MIP-1α; type: cell-based; conditions: γIFN+LPS, 18 hr
From the text: Similar results concerning a variety of cytokines in addition to TNF, e.g., IL-6 and Macrophage Inflammatory Proteins-1α and -1β (MIP-1α and MIP-1β) were obtained using human peripheral blood as a source of monocytes. Human peripheral blood mononuclear cells (PBMC) were isolated using “FICOLL®”-based methods and plated in standard 6-well culture plates at a concentration of 10^6/well and allowed to adhere for from 2 hr to overnight whereupon non-adherent cells were washed out and the medium was then replaced with medium containing the compound to be tested. One hour later, the medium was supplemented so as to contain 25 U/ml γIFN and 0.1 μg/ml LPS and the cultures incubated a further 18 hr. The medium was then collected, and cell debris removed by centrifugation. This conditioned supernatant was then assayed for the presence of cytokines using the standard methodologies of L929 cell cytotoxicity bioassay and immunoassay (ELISA).

[2] = Pharmacokinetics by HPLC of serum; type: in vivo, rats
Description: Male Sprague-Dawley rats (Harlan Sprague Dawley, Indianapolis, Ind., USA) were anesthetized with ketamine and the right carotid artery cannulated with polyethylene tubing (PE-50). […] At 0, 5, 15, 30, 60, 90, 120, 180, 240, 300, 360 minutes 400 μl of blood was removed, stored at 4° C. for 4 hr, and then centrifuged at 15,000 ×g for 10 min, and the serum layer collected. Sodium azide was added to 0.0l v/v to prevent microbial growth and pentamidine was added to 5 μg/ml. Twenty-five μl of the resulting sample was analyzed by the HPLC method described.
The HPLC method was applied towards estimating the pharmacokinetic parameters of Compound No. 14 in adult rats receiving a 10 mg/kg dose as a single intra-arterial injection. In these experiments, the solid-phase extraction step was omitted due to the small volume of each sample, and the relatively large amount of Compound No. 14 which was recovered. Typical serum decay curves were obtained (FIG. 17, solid line), and the method of residuals, Gibaldi, M., & Perrier, D., 1982, PHARMACOKINETICS (Marcel Dekker, New York) pp. 433-444, was used to calculate the pharmacokinetic parameters (FIG. 17, dashed lines).

LD50 = type: in vivo
RAW 264.7 cells [3] = experiment: Whole cell inhibition assay for arginine uptake; type: cell-based, murine
[4] = rats, 10 mg/kg single intra-arterial injection, n=3

Q: Which results are given for CC(=NNC(=N)N)c1cc(NC(=O)CCCCCCCCC(=O)Nc2cc(C(C)=NNC(=N)N)cc(C(C)=NNC(=N)N)c2)cc(C(C)=NNC(=N)N)c1.Cl.Cl.Cl.Cl [Compound 14, N,N′-bis(3,5-diacetyl-phenyl)decanediamide tetrakis(amidinohydrazone) tetrahydrochloride]?
A: arginine transport % suppression of induced peak (RAW 264.7 cells [1]; dose 2 μM): 9%; arginine transport % suppression of induced peak (RAW 264.7 cells [1]; dose 10 μM): 19%; arginine transport % suppression of induced peak (RAW 264.7 cells [1]; dose 50 μM): 86%; arginine transport % suppression of induced peak (RAW 264.7 cells [1]; dose 200 μM): 100%; IC50 (RAW 264.7 cells [1]; exposed prior to stimulation, uptake measured at 8 hours, read-out: I.C.50 for arginine uptake): 7.5 µM; concentration that effectively inhibited production of MIP-1α (MIP-1α): 10 to 20 µM; absorption and bioavailability ([2]; intraperitoneal or oral dosing routes (data not shown)): not rapidly absorbed, and may have a low bioavailability; distribution half-life (t½α) [2, 4]: 2.41 ± 0.69 min; distribution rate constant (α) [2, 4]: 0.31 ± 0.09 min⁻¹; elimination half-life (t½β) [2, 4]: 5.02 ± 0.00 h; elimination rate constant (β) [2, 4]: 0.0023 ± 0.0000 min⁻¹; total clearance (CL) [2, 4]: 5.62 ± 0.47 mL/min; volume of distribution (Vd) [2, 4]: 2.45 ± 0.21 L; peak plasma levels ([2]; single doses of 0.4-1.0 mg/kg, from pharmacokinetic constants and FIG. 17): > 0.5 µM; LD50 (LD50; given intraperitoneally): 50 mg/kg; LD50 (LD50; given orally): exceeds 1 g/kg; IC50 (RAW 264.7 cells [3]; stimulated 8 hours previously, then exposed 10 minutes in arginine-free buffer, mean±std. err., n=3, read-out: I.C.50 for arginine uptake): 60 ± 15 µM; sensitivity of arginine uptake of unstimulated cells (RAW 264.7 cells [3]; unstimulated RAW 264.7): insensitive
